Results taken from PubChem BioAssay AID248 (DTP/NCI, 2004).
Several values for one entry are separate records, joined by “and”; a condition that tells them apart may be missing. Equal entries are not always repeated. Inconclusive results and toxic doses are left out.

Tested on: L1210 leukemia ip in BDF1 mice, survival T/C
Assay: NCI In Vivo Anticancer Drug Screen. Data for tumor model L1210 Leukemia (intraperitoneal) in B6D2F1 (BDF1) mice
Details: endpoint: mean survival time, higher = longer survival
In short: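 In this screen, tumor-bearing mice given compound are compared to those given vehicle, and their survival values are reported as a treated-to-control quotient.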

[1] = dose: 100.0 mg/kg/injection, schedule: Q01DX001 (ip), vehicle: carboxymethylcellulose (CMC)
[2] = dose: 200.0 mg/kg/injection, schedule: Q01DX001 (ip), vehicle: carboxymethylcellulose (CMC)
[3] = dose: 400.0 mg/kg/injection, schedule: Q01DX001 (ip), vehicle: carboxymethylcellulose (CMC)
[4] = dose: 100.0 mg/kg/injection, schedule: Q04DX003 (ip), vehicle: Klucel (hydroxypropylcellulose) (HPC)
[5] = dose: 200.0 mg/kg/injection, schedule: Q04DX003 (ip), vehicle: Klucel (hydroxypropylcellulose) (HPC)
[6] = dose: 400.0 mg/kg/injection, schedule: Q04DX003 (ip), vehicle: Klucel (hydroxypropylcellulose) (HPC)
[7] = dose: 100.0 mg/kg/injection, schedule: Q01DX009 (ip), vehicle: saline
[8] = dose: 200.0 mg/kg/injection, schedule: Q01DX009 (ip), vehicle: saline
[9] = dose: 400.0 mg/kg/injection, schedule: Q01DX009 (ip), vehicle: saline
[10] = dose: 100.0 mg/kg/injection, schedule: Q01DX001 (ip), vehicle: saline
[11] = dose: 100.0 mg/kg/injection, schedule: Q04DX003 (ip), vehicle: saline
[12] = dose: 200.0 mg/kg/injection, schedule: Q01DX001 (ip), vehicle: saline
[13] = dose: 200.0 mg/kg/injection, schedule: Q04DX003 (ip), vehicle: saline
[14] = dose: 400.0 mg/kg/injection, schedule: Q01DX001 (ip), vehicle: saline
[15] = dose: 400.0 mg/kg/injection, schedule: Q04DX003 (ip), vehicle: saline
[16] = dose: 100.0 mg/kg/injection, schedule: Q01DX009 (ip), vehicle: Klucel (hydroxypropylcellulose) (HPC)
[17] = dose: 200.0 mg/kg/injection, schedule: Q01DX009 (ip), vehicle: Klucel (hydroxypropylcellulose) (HPC)
[18] = dose: 400.0 mg/kg/injection, schedule: Q01DX009 (ip), vehicle: Klucel (hydroxypropylcellulose) (HPC)

## O=NN(CCCl)C(=O)Nc1cccc(Cl)c1
dose: 2.28 mg/kg/injection, schedule: Q01DX001 (ip), vehicle: carboxymethylcellulose (CMC)
  T/C: 112 % of control
dose: 4.56 mg/kg/injection, schedule: Q01DX001 (ip), vehicle: carboxymethylcellulose (CMC)
  T/C: 116 % of control
[1]
  T/C: 160 % of control
dose: 125.0 mg/kg/injection, schedule: Q01DX001 (ip), vehicle: carboxymethylcellulose (CMC)
  T/C: 104 % of control
dose: 150.0 mg/kg/injection, schedule: Q01DX001 (ip), vehicle: carboxymethylcellulose (CMC)
  T/C: 153 % of control
dose: 175.0 mg/kg/injection, schedule: Q01DX001 (ip), vehicle: carboxymethylcellulose (CMC)
  T/C: 156 % of control

## CCCC(CCC)(C(N)=O)c1ccc(OC)cc1
[1]
  T/C: 87 % of control
[2]
  T/C: 98 % of control
[3]
  T/C: 93 % of control

## COc1ccc(N2C(=O)OC3(CCN(CCCC(=O)c4ccccc4)CC3)C2=O)cc1
[4]
  T/C: 101 % of control
[5]
  T/C: 98 % of control
[6]
  T/C: 92 % of control

## COc1ccc2c(c1)CN(S(=O)(=O)c1ccc(C)cc1)c1ccccc1C2=O
[7]
  T/C: 89 % of control
[8]
  T/C: 96 % of control
[9]
  T/C: 89 % of control

## CO/C(=N\S(=O)(=O)c1ccccc1)C1CC=CCC1/C(=N\S(=O)(=O)c1ccccc1)OC (stereo not given)
[4]
  T/C: 100 % of control
[5]
  T/C: 94 % of control
[6]
  T/C: 100 % of control

## OC(c1ccccc1)(c1ccccc1)C1CCCCC1=C(c1ccccc1)c1ccccc1 (stereo not given)
[10]
  T/C: 88 % of control
[7]
  T/C: 86 % of control
[11]
  T/C: 96 % of control
[12]
  T/C: 93 % of control
[13]
  T/C: 94 % of control
[14]
  T/C: 89 % of control
[9]
  T/C: 86 % of control
[15]
  T/C: 96 % of control

## O=C(NC/C(Br)=C/Br)Nc1c2ccccc2nc2ccccc12
dose: 10.0 mg/kg/injection, schedule: Q01DX009 (ip), vehicle: Klucel (hydroxypropylcellulose) (HPC)
  T/C: 96 % of control
dose: 20.0 mg/kg/injection, schedule: Q01DX009 (ip), vehicle: Klucel (hydroxypropylcellulose) (HPC)
  T/C: 107 % of control
dose: 40.0 mg/kg/injection, schedule: Q01DX009 (ip), vehicle: Klucel (hydroxypropylcellulose) (HPC)
  T/C: 89 % of control
dose: 75.0 mg/kg/injection, schedule: Q01DX009 (ip), vehicle: Klucel (hydroxypropylcellulose) (HPC)
  T/C: 89 % of control
[4]
  T/C: 102 % of control
[5]
  T/C: 94 % of control
[6]
  T/C: 94 % of control

## COc1ccc2c(OC)c3ccoc3nc2c1OC
dose: 25.0 mg/kg/injection, schedule: Q01DX Z (ip), vehicle: carboxymethylcellulose (CMC)
  T/C: 97 % of control
dose: 50.0 mg/kg/injection, schedule: Q01DX Z (ip), vehicle: carboxymethylcellulose (CMC)
  T/C: 100 % of control

## CCSC(C(O)C(O)C(O)C(O)CO)n1cnc2c(=S)nc[nH]c21 (stereo not given)
[10]
  T/C: 105 % of control
[11]
  T/C: 96 % of control
[12]
  T/C: 105 % of control
[13]
  T/C: 100 % of control
[14]
  T/C: 103 % of control
[15]
  T/C: 96 % of control

## CCOc1ccc(/C=C(\NC(=O)c2ccccc2)C(=O)Nc2ccccc2)cc1OC
[4]
  T/C: 100 % of control
[5]
  T/C: 87 % of control
[6]
  T/C: 91 % of control

## O=C(CCN1CCC2CCC(C2)C1)c1ccccc1C(F)(F)F (stereo not given)
dose: 50.0 mg/kg/injection, schedule: Q01DX001 (ip), vehicle: carboxymethylcellulose (CMC)
  T/C: 101 % of control

## O=C1OC(c2cccc([N+](=O)[O-])c2)=N/C1=C\c1cccc2ccccc12
[16]
  T/C: 94 % of control
dose: 100.0 mg/kg/injection, schedule: Q04DX002 (ip), vehicle: saline
  T/C: 96 % of control
[17]
  T/C: 105 % of control
dose: 200.0 mg/kg/injection, schedule: Q04DX002 (ip), vehicle: saline
  T/C: 101 % of control
[18]
  T/C: 97 % of control
dose: 400.0 mg/kg/injection, schedule: Q04DX002 (ip), vehicle: saline
  T/C: 94 % of control

## CCC(=O)O[C@H]1CC[C@H]2[C@@H]3CCC4=CC(=O)CC[C@]4(C)[C@H]3CC[C@]12C
dose: 125.0 mg/kg/injection, schedule: Q01DX Z (sc), vehicle: steriod suspending solution
  T/C: 101 % of control and 106 % of control
dose: 250.0 mg/kg/injection, schedule: Q01DX Z (sc), vehicle: steriod suspending solution
  T/C: 97 % of control and 112 % of control
dose: 500.0 mg/kg/injection, schedule: Q01DX Z (sc), vehicle: steriod suspending solution
  T/C: 101 % of control and 103 % of control
dose: 500.0 mg/kg/injection, schedule: Q01DX Z (sc), vehicle: water
  T/C: 95 % of control
dose: 1000.0 mg/kg/injection, schedule: Q01DX Z (sc), vehicle: steriod suspending solution
  T/C: 100 % of control
dose: 1000.0 mg/kg/injection, schedule: Q01DX Z (sc), vehicle: water
  T/C: 97 % of control

## O/N=C1\C(Cl)C2CC1C1C=CCC12 (stereo not given)
dose: 25.0 mg/kg/injection, schedule: Q04DX003 (ip), vehicle: Klucel (hydroxypropylcellulose) (HPC)
  T/C: 91 % of control

## O=C1CC2CCCC(CCO)(C2)N1 (stereo not given)
[1]
  T/C: 91 % of control
[2]
  T/C: 94 % of control
[3]
  T/C: 103 % of control

## O=C1NC2(c3ccccc3)NC(=O)NC2(c2ccccc2)N1 (stereo not given)
[10]
  T/C: 97 % of control
[7]
  T/C: 91 % of control
[11]
  T/C: 102 % of control
[12]
  T/C: 92 % of control
[8]
  T/C: 97 % of control
[13]
  T/C: 95 % of control
[14]
  T/C: 100 % of control
[9]
  T/C: 102 % of control
[15]
  T/C: 102 % of control

## S=C(NCN1CCNCC1)C(=S)NCN1CCNCC1
dose: 12.5 mg/kg/injection, schedule: Q01DX009 (ip), vehicle: Klucel (hydroxypropylcellulose) (HPC)
  T/C: 97 % of control
dose: 25.0 mg/kg/injection, schedule: Q01DX009 (ip), vehicle: Klucel (hydroxypropylcellulose) (HPC)
  T/C: 100 % of control
dose: 50.0 mg/kg/injection, schedule: Q01DX009 (ip), vehicle: Klucel (hydroxypropylcellulose) (HPC)
  T/C: 93 % of control

## CCN(Cc1ccccc1)C(=S)Nc1ccccc1
dose: 100.0 mg/kg/injection, schedule: Q04DX002 (ip), vehicle: Klucel (hydroxypropylcellulose) (HPC)
  T/C: 96 % of control
dose: 200.0 mg/kg/injection, schedule: Q04DX002 (ip), vehicle: Klucel (hydroxypropylcellulose) (HPC)
  T/C: 108 % of control
dose: 400.0 mg/kg/injection, schedule: Q04DX002 (ip), vehicle: Klucel (hydroxypropylcellulose) (HPC)
  T/C: 101 % of control

## Cc1cccc(/C=N/N(C)C(N)=S)n1
[1]
  T/C: 102 % of control
[2]
  T/C: 106 % of control

## COc1ccc([N+](=O)[O-])cc1NC(=O)Nc1ccc(S(N)(=O)=O)cc1
[16]
  T/C: 101 % of control
[17]
  T/C: 92 % of control
[18]
  T/C: 94 % of control

## CCCCCCCCCCCCCCCC(=O)O
[16]
  T/C: 100 % of control
[4]
  T/C: 98 % of control
[17]
  T/C: 92 % of control
[5]
  T/C: 98 % of control
[18]
  T/C: 97 % of control
[6]
  T/C: 97 % of control

## C=CCNC(=S)NNC(=O)CCCC(=O)NNC(=S)NCC=C
dose: 50.0 mg/kg/injection, schedule: Q01DX001 (ip), vehicle: saline
  T/C: 90 % of control
[10]
  T/C: 93 % of control
[14]
  T/C: 102 % of control

## O=[N+]([O-])C1CCC2CCC3CCCC1C32 (stereo not given)
dose: 25.0 mg/kg/injection, schedule: Q04DX002 (ip), vehicle: saline with Tween-80
  T/C: 97 % of control
dose: 50.0 mg/kg/injection, schedule: Q04DX002 (ip), vehicle: saline with Tween-80
  T/C: 91 % of control
dose: 100.0 mg/kg/injection, schedule: Q04DX002 (ip), vehicle: saline with Tween-80
  T/C: 101 % of control and 102 % of control
dose: 400.0 mg/kg/injection, schedule: Q04DX002 (ip), vehicle: saline with Tween-80
  T/C: 93 % of control

## Cc1ccc(CN=C=S)cc1
dose: 6.25 mg/kg/injection, schedule: Q01DX009 (ip), vehicle: saline with Tween-80
  T/C: 103 % of control
dose: 12.5 mg/kg/injection, schedule: Q01DX009 (ip), vehicle: saline with Tween-80
  T/C: 98 % of control
dose: 25.0 mg/kg/injection, schedule: Q01DX009 (ip), vehicle: saline with Tween-80
  T/C: 97 % of control

## Nc1ccc(N=Nc2ccccc2)cc1[N+](=O)[O-]
dose: 100.0 mg/kg/injection, schedule: Q04DX003 (ip), vehicle: saline with Tween-80
  T/C: 98 % of control
dose: 200.0 mg/kg/injection, schedule: Q04DX003 (ip), vehicle: saline with Tween-80
  T/C: 96 % of control
dose: 400.0 mg/kg/injection, schedule: Q04DX003 (ip), vehicle: saline with Tween-80
  T/C: 94 % of control
